Results reported in patent US20120088737A2, “NOVEL ACYL GUANIDINE DERIVATIVES” (AJINOMOTO CO., INC, priority 2009, published 2012).

Experiments:
[1] = MDCK membrane permeability (trans-well); type: in vitro ADME, Canine; details: dog, apical pH 6.5 / basal pH 7.4, 37° C.
Procedure: Pharmacological Test Example 4: MDCK Membrane Permeability
1×10^6 MDCK (MADIN-DARBY Canine Kidney) cells were seeded to each well and cultivated on a trans-well for 4 days (Mixed medium; DMEM: F12=1:1). The trans-well consists of a upper chamber into which cells are seeded and a lower chamber which is separated by a porous membrane and each test compound added into the upper chamber penetrates through the porous membrane to be detected in the lower chamber. The trans-well system has been used as a model for cell membrane permeability.
Buffer solution (pH 6.5) (138 mM NaCl, 2.7 mM KCl, 25 mM D-Glucose, 20 mM MES, 1.25 mM CaCl2, 0.5 mM MgCl2; pH was adjusted with KOH) was added into the upper chamber (Apical side) while Buffer solution (pH 7.4) (138 mM NaCl, 2.7 mM KCl, 25 mM D-Glucose, 20 mM HEPES, 1.25 mM CaCl2, 0.5 mM MgCl2; pH was adjusted with KOH) was added into the lower chamber (basal side). After it was pre-incubated at 37° C. for 20 minutes, 50 μM of each test compound was added thereto and then reacted at 37° C. for 1 hour. The solutions in the upper and lower chambers were collected and the concentrations of each test compound were determined by LC/MS to calculate membrane permeability values (Pm values) by the following equation. Pm[cm/sec]=(Concentration of each test compound in the basal side×1.5 mL)/(3600 sec×1.12 cm^2×Initial concentration of the added compound)

[2] = tested on: renal dysfunction model rats; experiment: Continuous administration test in renal dysfunction model rats; type: in vivo, Wistar rats
Procedure: Pharmacological Test Example 5: Continuous Administration Test in Renal Dysfunction Model Rats
After unilateral nephrectomy was performed on 7-week-old Wistar rats and the rats were habituated for 1 week, they were divided into 4 groups based on their body weights, Normal group, Vehicle group, 20 mg/kg of the compound of Example 7-administered group and 50 mg/kg of the compound of Example 7-administered group were assigned to 5 rats, respectively. After the rats were habituated in metabolic cages for 4 days, the test compound the compound of Example 7) dissolved in 0.5% methylcellulose solution was administered via gavage simultaneously with intraperitoneal administration of oleic acid-containing bovine serum albumin (OA-BSA) at a dose of 2 g/animal once daily for 4 days. Vehicles (0.5% methylcellulose solution) were administered to Normal group and Vehicle group instead of the test compound (the compound of Example 7). In addition, no oleic acid-containing bovine serum albumin was administered to Normal group and only unilateral nephrectomy was performed on the Normal group rats. Urine samples were collected from each rat on the last administration day to the next day of the last administration, and blood sampling and autopsy were conducted on the same day.

human NHE3 [3] = biological target: T1, human NHE3 (Homo sapiens, UniProt P48764); experiment: Measurements of NHE3 inhibitory activities (OK26 cells); type: cell-based; details: OK26 cells (opossum kidney cells overexpressing human NHE3), measurement time 5 minutes at 37° C.; read-out: hNHE3 IC50
T1 construct: expressed in transfected cells; host or cells: OK26 cells (opossum kidney OK cells); OK26 ND sublines with opNHE1 reduced by 90% for A3
T1 sequence (P48764 26-834): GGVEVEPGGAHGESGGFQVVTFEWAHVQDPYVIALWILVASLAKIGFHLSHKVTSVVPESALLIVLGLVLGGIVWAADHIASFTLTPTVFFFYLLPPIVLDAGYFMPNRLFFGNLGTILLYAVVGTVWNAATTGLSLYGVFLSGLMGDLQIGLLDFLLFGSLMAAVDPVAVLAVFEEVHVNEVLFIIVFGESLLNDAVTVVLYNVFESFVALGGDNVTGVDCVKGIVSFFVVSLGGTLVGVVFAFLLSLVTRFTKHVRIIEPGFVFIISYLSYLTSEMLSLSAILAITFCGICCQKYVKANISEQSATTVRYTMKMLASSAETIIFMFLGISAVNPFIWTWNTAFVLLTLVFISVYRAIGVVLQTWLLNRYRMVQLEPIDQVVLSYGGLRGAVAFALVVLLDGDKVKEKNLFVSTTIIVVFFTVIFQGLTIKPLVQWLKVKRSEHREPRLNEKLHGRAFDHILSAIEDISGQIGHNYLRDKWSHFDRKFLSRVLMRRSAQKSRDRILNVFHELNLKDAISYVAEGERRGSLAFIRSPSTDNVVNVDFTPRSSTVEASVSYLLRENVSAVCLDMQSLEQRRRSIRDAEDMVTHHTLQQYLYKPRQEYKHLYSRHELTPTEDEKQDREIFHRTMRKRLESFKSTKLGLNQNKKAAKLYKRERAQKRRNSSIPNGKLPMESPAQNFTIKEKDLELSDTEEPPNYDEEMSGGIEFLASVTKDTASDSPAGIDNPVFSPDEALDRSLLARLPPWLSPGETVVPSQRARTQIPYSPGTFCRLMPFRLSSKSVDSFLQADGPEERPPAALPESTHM
Procedure: (§1) HLF cells (Human hepatoma cell line) were used as cells for the test. After 1×10^4 cells/well were seeded to a 96-well plate and cultured for 3 days, they were cultured overnight under a serum-free medium. Then, the cells were incubated in a stain solution of Tetramethylammonium (TMA) Buffer (130 mM TMA-C1, 5 mM KCl, 2 mM CaCl2, 1 mM MgSO2, 25 mM glucose, 20 mM HEPES; pH 7.4) containing 40 mM NH4Cl and 1 μg/mL pH-sensitive fluorescent indicator BCECF-AM at 37° C. for 40 minutes and then BCECF was introduced into the cells. After the cells were washed once with TMA Buffer and incubated in TMA+40 mM NH4Cl solution at 37° C. for 15 minutes, the solution was removed and 20 μL/well of TMA Buffer and 10 μL/well of each test compound solution prepared with TMA Buffer were added to each well. The measurements were carried out by adding 200 μL/well of Na Buffer (130 mM, NaCl, 5 mM KCl, 2 mM CaCl2, 1 mM MgSO2, 1 mM NaH2PO4, 25 mM glucose, 20 mM HEPES; pH 7.4) or TMA Buffer (for base measurement), immediately placing it on FlexStation (Molecular Device) and then, after 10 minutes, measuring, it the two wavelengths of 505 nm (excitation wavelength)/530 nm (emission wavelength) (measurement value) and 440 nm (excitation wavelength)/530 nm (emission wavelength) (isosbestic point value). A NHE activity was calculated by dividing a measurement value by an isosbestic point value and a NHE1 inhibitory activity was calculated by the following equation. NHE1 inhibitory activity (%)=100×(1−(Measurement value [addition of each compound]−Base [addition of TMA Buffer])/(Control [addition of Na Buffer]−Base [addition of TMA Buffer]))
Pharmacological Test Example 2: Measurements of NHE3 Inhibitory Activities.
OK26 cells (OK (opossum kidney) cells in which human NHE3 genes are overexpressed) were used as cells for the test. The measurements were carried out in the same manner as described in Pharmacological Test Example 1 except that the measurement time was 5 minutes (at 37° C.) to calculate NHE3 inhibitory activities.

human NHE3 [4] = biological target: T1, human NHE3; experiment: Improved version of measurements of NHE3 inhibitory activities (OK26 ND cell lines); type: cell-based; details: OK26 ND cell lines (opNHE1 expression reduced by 90%), measurement time 8 minutes at 26° C.; read-out: hNHE3 IC50
Procedure: Pharmacological Test Example 3: Improved Version of Measurements of NHE3 Inhibitory Activities
OK26 cells express endogeneous NHE1 (opNHE1). In order to evaluate NHE3 inhibitory activities more precisely, OK26 ND cell lines in which the expression level of opNHE1 is reduced by 90% were established. Measurements of NEE inhibitory activities were carried out by using the established cell lines in the same manner as described in Pharmacological Test Example 1 except that the measurement time was 8 minutes (at 26° C.) to calculate more precise NHE3 inhibitory activities.

NHE1 = biological target: T2, NHE1 (Homo sapiens, UniProt P19634); experiment: Measurements of NHE1 inhibitory activities (HLF cells, BCECF pH recovery); type: cell-based; details: HLF cells (human hepatoma cell line), measured after 10 minutes; read-out: hNHE1 IC50
T2 construct: HLF cells (Human hepatoma cell line) were used as cells for the test; endogenous in cells; host or cells: HLF cells (human hepatoma cell line)
T2 sequence (P19634 whole entry): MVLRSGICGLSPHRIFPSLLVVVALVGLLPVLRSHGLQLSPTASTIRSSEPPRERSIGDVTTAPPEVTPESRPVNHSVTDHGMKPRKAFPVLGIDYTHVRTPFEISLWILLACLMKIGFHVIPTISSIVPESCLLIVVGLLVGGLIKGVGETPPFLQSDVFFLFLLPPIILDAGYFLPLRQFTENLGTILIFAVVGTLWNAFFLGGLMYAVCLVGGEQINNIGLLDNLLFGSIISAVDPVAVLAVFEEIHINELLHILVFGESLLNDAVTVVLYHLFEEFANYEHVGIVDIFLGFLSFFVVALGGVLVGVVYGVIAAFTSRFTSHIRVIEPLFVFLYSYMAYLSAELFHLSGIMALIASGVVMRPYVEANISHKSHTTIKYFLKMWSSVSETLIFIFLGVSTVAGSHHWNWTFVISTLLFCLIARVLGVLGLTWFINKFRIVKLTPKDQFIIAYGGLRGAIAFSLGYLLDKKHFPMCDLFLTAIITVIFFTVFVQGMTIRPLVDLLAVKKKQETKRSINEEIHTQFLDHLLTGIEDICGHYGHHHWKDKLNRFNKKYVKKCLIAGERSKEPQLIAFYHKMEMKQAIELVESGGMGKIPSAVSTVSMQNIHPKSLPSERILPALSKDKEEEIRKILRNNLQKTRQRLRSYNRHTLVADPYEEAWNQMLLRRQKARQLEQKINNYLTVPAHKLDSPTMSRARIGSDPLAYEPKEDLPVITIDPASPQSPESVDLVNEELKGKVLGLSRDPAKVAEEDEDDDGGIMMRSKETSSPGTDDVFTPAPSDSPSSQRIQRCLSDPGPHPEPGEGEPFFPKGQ
Procedure: Pharmacological Test Example 1: Measurements of NHE1 Inhibitory Activities
as §1

[5] = test compound-administered groups (20 and 50 mg/kg), 4 days, FIG. 2

Compound	Papp A→B at 1 h, 50 μM [1]	tubular damages (beta 2-microglobulin, marker for tubular damage) ([2]; 20 mg/kg and 50 mg/kg via gavage once daily for 4 days, OA-BSA i.p., unilaterally nephrectomized rats, FIG. 1)	tubular damage scores ([2]; test compound administered groups (20 and 50 mg/kg), 4 days, FIG. 3)	appearances of urinary cast (renal pathological images) [2, 5]	dilation of proximal renal tubules (renal pathological images) [2, 5]	IC50 (human NHE3 [3])	IC50 (human NHE3 [4])	IC50 (NHE1)
COC(=O)c1ccc(-c2ccccc2/C=C(\C)C(=O)NC(=N)N)cc1 [Example 7, (E)-2′-(3-guanidino-2-methyl-3-oxo-propenyl)-biphenyl-4-carboxylic acid methyl ester]	2 ×10⁻⁶ cm/s	Significant improvements in tubular damages	Reductions in tubular damage scores	significant reductions in appearances of urinary cast	improvements in dilation of proximal renal tubules	> 10000 nM		
CC(=O)c1cccc(-c2ccccc2/C=C(\C)C(=O)NC(=N)N)c1 [Example 15, N-[(E)-3-(3′-acetyl-biphenyl-2-yl)-2-methyl-acryloyl]guanidine]	1 ×10⁻⁶ cm/s					610 nM	360 nM	1200 nM
C/C(=C\c1ccc(C)cc1-c1cccc(O)c1)C(=O)NC(=N)N [Example 37, N-[(E)-3-(3′-hydroxy-5-methyl-biphenyl-2-yl)-2-methyl-acryloyl]-guanidine]						180 nM	38 nM	1600 nM
